According to US20240336896A1, “MODIFIED PRODUCER CELLS FOR EXTRACELLULAR VESICLE PRODUCTION” (LONZA SALES AG, priority 2021, published 2024):
Where two headings read alike, the source gives them in different places.

Tests used:
[1] = tested on: 1919 HiBit reporter cell line; experiment: HiBit luciferase reporter assay of EV production, agent supplemented into media; format: cell-based
HiBit reporter cell line [2] = details: for Day 4 VCD / Day 4 Viability: 4 day; for D6 VCD / Day 6 Viability: 6 day
[3] = tested on: HEK producer cell line producing Protein X EVs (PrX); experiment: EV yield in total particles, PrX producer cells; format: cell-based
Procedure: (§1) The cells lines were treated with simvastatin (5 nM and 10 nM) for 10 days prior to EV purification.

HiBit reporter cell line [4] = experiment: viability and viable cell density (VCD) of treated producer cells
human adipose MSC cells = experiment: relative EV yield by AEX UHPLC peak areas of clarified conditioned media; format: cell-based; details: 6 nM simvastatin, 4 days, serum free media
Procedure: When cultures reached approximately 50% confluence, the media was removed and replaced with the identical growth media (control) or the growth media supplemented with […] simvastatin (sim treated). The cultures were incubated for an additional 4 days at which point the conditioned media was collected and the cell debris removed by centrifugation. The clarified condition media was then analyzed by anion exchange (AEX) ultra high-performance liquid chromatography (UHPLC), and the relative amount of extracellular vesicles in each sample was estimated by comparing peak areas. Table 11 quantifies the results, showing a 2.6 fold increase in EV production by adipose MSC cells treated with 6 nM simvastatin.

CHO-S cells = experiment: EV yield in total particles from CHO cells; format: cell-based, Chinese Hamster
Procedure: Table 10 quantifies the results. A similar 5.6-fold increase relative to untreated controls was also observed in CHO-S cells six days after being treated with 6 nM simvastatin.

[5] = tested on: HEK producer cell line producing IL-12 EVs (exoIL-12); experiment: EV yield in total particles, exoIL-12 producer cells; format: cell-based
Procedure: as §1

[6] = tested on: primary murine polymorphonuclear neutrophils, RAW264.7 monocytic cells, and 4T1 murine mammary cancer cells; details: Baek et al., Endocrinology 2021; cited from earlier work

Question: Which “EV expression (luminescence/cell)” value ([1]; 10, 25, 50, 75, 100 nM, four days post induction) does the source give for `CC(C)c1nc(N(C)S(C)(=O)=O)nc(-c2ccc(F)cc2)c1/C=C/[C@@H](O)C[C@@H](O)CC(=O)O` [rosuvastatin] here?
Answer: dose-dependent increase

Question: What does the source list for `CN(C)C(=O)N[C@H]1CC[C@H](CCN2CCN(c3cccc(Cl)c3Cl)CC2)CC1` [Cariprazine, cariprazine]?
Answer: Day 4 VCD (HiBit reporter cell line [2]): 5.14 e6/ml; Day 4 VCD (HiBit reporter cell line [2]; 5 μM): 7.73 e6/ml; Day 4 Viability (HiBit reporter cell line [2]; 5 μM): 95.6%; Day 4 Viability (HiBit reporter cell line [2]; 10 μM): 89.7%; D6 VCD (HiBit reporter cell line [2]; 5 μM): 11.97 e6/ml; Day 6 Viability (HiBit reporter cell line [2]; 5 μM): 92.4%; D6 VCD (HiBit reporter cell line [2]; 10 μM): 5.13 e6/ml; Day 6 Viability (HiBit reporter cell line [2]; 10 μM): 81.0%; Luciferase relative to control ([1]; 2 μM cariprazine, Day 2): 0.8; Luciferase relative to control ([1]; 2 μM cariprazine, Day 3): 1.8; Luciferase relative to control ([1]; 5 μM cariprazine, Day 2): 1; Luciferase relative to control ([1]; 5 μM cariprazine, Day 3): 2.6; Luciferase relative to control ([1]; 10 μM cariprazine, Day 2): 0.8; Luciferase relative to control ([1]; 10 μM cariprazine, Day 3): 2.4

Question: Which “Relationship to Control” value ([3]; 5 nM simvastatin for 10 days) does the source give for `CCC(C)(C)C(=O)O[C@H]1C[C@@H](C)C=C2C=C[C@H](C)[C@H](CC[C@@H]3C[C@@H](O)CC(=O)O3)[C@H]21` [Simvastatin, simvastatin] here?
Answer: 4x

Question: And the “Total Particles” value ([3]; 5 nM simvastatin for 10 days prior to EV purification)?
Answer: 4.5E+11

Question: What about the “Luciferase relative to control” value ([1]; 10 nM simvastatin, Day 2) of the same compound?
Answer: 2.3

Question: And the “Luciferase relative to control” value ([1]; 10 nM simvastatin, Day 3)?
Answer: 4.7

Question: And the “Luciferase relative to control” value ([1]; 10 nM simvastatin, Day 6)?
Answer: 9.6

Question: What about the “Luciferase relative to control” value ([1]; 50 nM simvastatin, Day 2) of the same compound?
Answer: 5.3

Question: What about the IC50 ([1]; simvastatin supplemented into the media, inhibited quantity not stated) of the same compound?
Answer: 10 to 20 nM

Question: And the “D6 VCD” value (HiBit reporter cell line [4]; 2 nM simvastatin)?
Answer: 17.00 e6/ml

Question: What about the “Day 4 VCD” value (HiBit reporter cell line [4]; 2 nM simvastatin) of the same compound?
Answer: 10.41 e6/ml

Question: And the “Day 4 Viability” value (HiBit reporter cell line [4]; 2 nM simvastatin)?
Answer: 94.9%

Question: And the “Day 6 Viability” value (HiBit reporter cell line [4]; 2 nM simvastatin)?
Answer: 95.5%

Question: And the “D6 VCD” value (HiBit reporter cell line [4]; 5 nM simvastatin)?
Answer: 15.5 e6/ml

Question: And the “Day 4 VCD” value (HiBit reporter cell line [4]; 5 nM simvastatin)?
Answer: 9.16 e6/ml

Question: And the “Day 4 Viability” value (HiBit reporter cell line [4]; 5 nM simvastatin)?
Answer: 92.7%

Question: What about the “Day 6 Viability” value (HiBit reporter cell line [4]; 5 nM simvastatin) of the same compound?
Answer: 95.7%

Question: And the “tolerability of producer cells” value (HiBit reporter cell line [4]; 10 nM dose, batch refeed in shake flask, duration of the study)?
Answer: well tolerated

Question: And the “D6 VCD” value (HiBit reporter cell line [4]; 10 nM simvastatin)?
Answer: 12.41 e6/ml

Question: What about the “Day 4 VCD” value (HiBit reporter cell line [4]; 10 nM simvastatin) of the same compound?
Answer: 8.66 e6/ml

Question: And the “Day 4 Viability” value (HiBit reporter cell line [4]; 10 nM simvastatin)?
Answer: 88.8%

Question: And the “Day 6 Viability” value (HiBit reporter cell line [4]; 10 nM simvastatin)?
Answer: 93.6%

Question: What about the “viable cell density (VCD)” value (HiBit reporter cell line [4]; simvastatin alone in HiBit cultures, Example 7) of the same compound?
Answer: characteristic decrease

Question: And the “FOLD INCREASE PER CELL EV PRODUCTION” value (human adipose MSC cells)?
Answer: 2.6 X

Question: And the “FOLD INCREASE PER CELL EV PRODUCTION” value (human adipose MSC cells; listed as Sim)?
Answer: 2.6X

Question: And the “increase in EV yield relative to untreated controls” value (CHO-S cells; CHO-S cells six days after being treated with 6 nM simvastatin)?
Answer: 5.6 fold

Question: And the “Relationship to Control” value (CHO-S cells; CHO-S, 10 nM simvastatin)?
Answer: 5.6X

Question: What about the “Total Particles” value (CHO-S cells; CHO-S, 10 nM simvastatin) of the same compound?
Answer: 2.22E+11

Question: And the “Relationship to Control” value ([5]; exoIL-12, 5 nM simvastatin for 10 days)?
Answer: 3.5x^

Question: And the “Total Particles” value ([5]; exoIL-12, 5 nM simvastatin for 10 days prior to EV purification)?
Answer: 1.79E+11

Question: What about the “Relationship to Control” value ([5]; exoIL-12, 10 nM simvastatin for 10 days) of the same compound?
Answer: 7x

Question: And the “Total Particles” value ([5]; exoIL-12, 10 nM simvastatin for 10 days prior to EV purification)?
Answer: 3.50E+11

Question: With `Cc1nc[nH]c1CN1CCN(C(=O)N[C@@H](CC(C)C)C(=O)O)[C@@H](Cc2ccccc2)C1=O` [GGTI-2418] as the compound, how does the “effect on exosome production (RLU)” value ([1]; days 2, 4, 6, and 8) read?
Answer: no effect

Question: And the “effect on cell density (VCD)” value (HiBit reporter cell line [4]; days 2, 4, 6, and 8)?
Answer: no effect

Question: With `C[C@@H](CO)CCC[C@@H](C)[C@H]1CC[C@H]2[C@@H]3CC=C4C[C@@H](O)CC[C@]4(C)[C@H]3CC[C@]12C` [27-hydroxycholesterol] as the compound, how does the exosome production [6] read?
Answer: increased exosome production

Question: For `CC(C)CCC[C@@H](C)[C@H]1CC[C@H]2[C@@H]3CC=C4C[C@@H](O)CC[C@]4(C)[C@H]3CC[C@]12C` [synthetic cholesterol, cholesterol], which “impact on cell culture VCD” value (HiBit reporter cell line [2]) is on record?
Answer: no impact

Question: And the “impact on exosome production” value ([1]; elevated cholesterol alone)?
Answer: no impact

Question: And the “simvastatin induction of EV production” value ([1]; supplemental cholesterol together with simvastatin, still higher than control cultures lacking statin)?
Answer: largely attenuated
